The values below come from the METLIN SMRT retention time set (Domingo-Almenara et al. 2019).

The series in a line: gradient 5% acetonitrile 3 min, to 50% in 2 min, to 85% in 15 min, held 3 min, 100 µL/min. The note with it: column: Zorbax Extend-C18 2.1 x 50 mm; eluents: water / acetonitrile, 0.1% formic acid. In a few lines:
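In both positive and negative ionization mode, a quadrupole time-of-flight mass spectrometer coupled to HPLC analyzed pure standards run in mixtures of ~100 molecules. The Zorbax Extend-C18 column (2.1 × 50 mm, 1.8 μm) was operated at 100 μL/min with water and acetonitrile, each containing 0.1% formic acid. The dead volume was 40 μL and the dwell volume 900 μL. Retention time came from adduct peaks that were computationally picked and individually inspected by hand.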
Consider `O=C(Cc1nnc(-c2cccc(Br)c2)o1)NCc1ccc(F)cc1Cl`, for which the RP-LC retention time amounted to 869 s. `CC(C)Oc1ccc(CNC(=O)C2CCCN(c3nn4c(=O)c5c(nc4s3)CCCC5)C2)cc1` (stereo not given) showed an RP-LC retention time of 844 s. `COCCC1CCN(C(=O)CN(C)C(=O)Cc2c(C)noc2C)CC1` had an RP-LC retention time of 627 s. `COc1cccc(Cn2cc(C(=O)O)nn2)c1` returned an RP-LC retention time of 635 s.

In turn, `CC(C)NC(=O)N(C)CCc1noc(COc2ccc(Cl)cc2)n1` registered an RP-LC retention time of 841 s. In turn, `COc1cc(NC(=O)Cc2c(C(=O)O)c(C)cn2C)cc(OC)c1` had an RP-LC retention time of 778 s. As for `CC(C)(C)Cn1c(N)nc2ccc(-c3[nH]c(C(C)(C)C)nc3-c3ccc(F)cc3)nc21`, the figure is 631 s. `Cc1ccc(-c2ccnc3c(C(=O)NCCc4c[nH]c5ccccc45)cnn23)cc1C`: the RP-LC retention time stood at 1070 s. For the compound `CCOc1ccccc1-c1noc(CN2C(=O)COc3ccccc32)n1`, the RP-LC retention time was determined as 963 s. As for `COCCCNC(=O)CCc1cn(-c2ccccc2)nc1-c1ccc2c(c1)OCO2`, the RP-LC retention time came to 841 s.

In turn, `CC(=O)c1cccc(NC(=O)Cn2cccc2-c2nnc(C3CCC3)o2)c1` returned an RP-LC retention time of 831 s.

Compound `CCc1noc(NC(C)=O)c1-c1ccc(C)c(S(=O)(=O)Nc2ccc(C)cc2Br)c1` had an RP-LC retention time of 919 s. To `CN(C(=O)Cn1c(=O)oc2ccc(C(=O)N3CCCC3)cc21)C1CCCCC1` belongs 761 s; to `CC1CCN(c2cc(C(=O)O)c3cc(NC(=O)c4ccc(Br)cc4)ccc3n2)CC1`, 689 s. The compound `Cc1ccc(Cn2c(N3CCCC(C(=O)Nc4cccc(C)c4)C3)nc3ccsc3c2=O)cc1` (stereo not given) registered an RP-LC retention time of 1080 s. For `CCC(C)NC(=O)c1nccnc1NC(=O)c1ccccc1` (stereo not given), the RP-LC retention time was 899 s. As to `Cc1oc(-c2ccccc2)nc1Cn1nnc(C(=O)Nc2cc(F)ccc2F)c1C`, the RP-LC retention time was found to be 1220 s.

The compound `CCC1=NS(=O)(=O)c2cccnc2N1c1ccc(F)c(C)c1` had an RP-LC retention time of 897 s. In turn, `Cn1nccc1C(=O)NC1CCCN(c2cc(N3CCCC3)ncn2)C1` (stereo not given) gave an RP-LC retention time of 590 s.

Compound `COc1ccc(N2CCN(C(=S)Nc3ccc4nc(N5CCN(C)CC5)cc(C)c4c3)CC2)cc1` gave an RP-LC retention time of 580 s.

With `Cc1ccc(NC(=O)CN2C(=O)CCCc3cc(S(=O)(=O)N4CCC(C)CC4)ccc32)cc1`, the RP-LC retention time is 976 s. Turning to `CC(=O)N1c2ccc(S(=O)(=O)N3CCCC3)cc2CC1C(=O)NCCc1ccc(C)cc1` (stereo not given), the RP-LC retention time turned out to be 797 s. In turn, `NS(=O)(=O)c1ccc(CCNC(=O)c2cnc3sccn3c2=O)cc1` showed an RP-LC retention time of 568 s. As for `Cc1ccc(C)c(NC(=O)Cn2ncc3c(c2=O)N(CC2CC2)C(=O)CS3)c1`, the figure is 812 s. `Cc1cc(-c2nnc(NC(=O)c3ccn(C)n3)o2)c(C)o1` came in with an RP-LC retention time of 654 s. The compound `COC(=O)c1ccc(C(=O)Nc2nc3c(s2)CCc2ccccc2-3)cc1` gave an RP-LC retention time of 1120 s.

`Cc1cc(S(=O)(=O)N2CCc3c(c(-c4nnc(-c5ccccc5)o4)nn3C)C2)ccc1F`: the RP-LC retention time worked out at 703 s. As for `Cc1ccc(NC(=O)Cn2c(N)nc(C)c(C)c2=O)cc1`, the RP-LC retention time came to 611 s.

Consider `CC(C)CCN1C[C@@H]2C(=O)N(CCN3CCc4ccccc4C3)C(=O)[C@@H]2C1`, for which the RP-LC retention time was found to be 561 s.

Take `O=C(Nc1ccc2c(c1)OCCO2)N1CCC(Cc2noc(C3CCOCC3)n2)C1` (stereo not given): the RP-LC retention time was 698 s. To `COc1ccc(C)cc1NS(=O)(=O)c1ccc2c(c1)C(=O)N(C)c1ncccc1O2` belongs 933 s. Compound `COc1ccc(S(=O)(=O)N2C[C@H]3CN(C(=O)NCC(C)C)C[C@@H](C2)O3)cc1` returned an RP-LC retention time of 729 s. In turn, `CN(CC1CCOCC1)S(=O)(=O)c1cccc(C(F)(F)F)c1` came in with an RP-LC retention time of 906 s. As for `Cc1cc(C)c2sc(NC(=O)c3ccco3)nc2c1`, the RP-LC retention time stood at 881 s.

Take `COc1ccc(OC)c(S(=O)(=O)NCCc2ncc(C)n2C(C)C)c1`: the RP-LC retention time amounted to 540 s. As for `COC(=O)c1ccc(Cn2cnc3c(-c4cccc(F)c4)csc3c2=O)o1`, the figure is 957 s; as for `Cc1csc(-c2cc(S(=O)(=O)N3CCN(CC(C)C)CC3)cn2CC(=O)N2CCCCC2)n1`, 724 s; as for `COc1cccc(-n2ccn3cc(-c4cccc(Cl)c4)nc3c2=O)c1`, 837 s. The compound `CCCNc1cc(N2CCC(CCC(=O)NCc3ccccc3F)CC2)ncn1` registered an RP-LC retention time of 680 s. Take `COCCNC(=O)c1nc(Nc2ccc(F)cc2)c2ccccc2n1`: the RP-LC retention time was determined as 681 s. As for `CN(C)CC(=O)N1CC(F)(F)C[C@H]1c1nc(C2CC2)no1`, the figure is 584 s; as for `CN1Cc2ccccc2-n2ccnc2C12CCN(C(=O)c1cccc(C(F)(F)F)c1)CC2`, 594 s. Compound `NC(=O)CSc1nnc(-c2cccc(Cl)c2)o1` returned an RP-LC retention time of 696 s.

As for `Cc1cc2c(=O)n(CC(=O)Nc3ccc(Cl)cc3)ccc2s1`, the RP-LC retention time is 852 s. With `COc1ccc(NC(=O)C2CCN(S(=O)(=O)c3cn(C(C)C)cn3)CC2)c(OC)c1`, the RP-LC retention time is 951 s. In the case of `Cc1ccc(C(=O)Nc2ccc(N3CCN(Cc4ccccc4)C3=O)nc2)s1`, the RP-LC retention time was 847 s. On to `Cc1ccc(S(=O)(=O)N2CC(=O)N(C3CCCCC3)C(C)(C(=O)NCc3ccccc3)C2)cc1` (stereo not given), for which the RP-LC retention time was 1100 s.

Regarding `O=C(Nc1ccc(Cl)cc1)N1CCC(n2cnc3ccc(F)cc3c2=O)CC1`, the RP-LC retention time amounted to 848 s. `O=C(NCCc1csc(C2CCCN(C(=O)C3CCCC3)C2)n1)C1CC1` (stereo not given) had an RP-LC retention time of 696 s.

`O=S(=O)(c1ccc2nncn2c1)N(Cc1ccc(F)cc1)c1cccc(F)c1` showed an RP-LC retention time of 861 s.

`O=C(Cc1noc2ccccc12)NCc1cc(-c2ccc(F)cc2F)on1` displayed an RP-LC retention time of 818 s. On to `COc1ccc(S(=O)(=O)Nc2ccc(-c3cn4ccc(C)nc4n3)cc2)cc1`, for which the RP-LC retention time was 656 s. `CNC(=O)C1CCCN(c2nc3ncn(CC(=O)Nc4ccccc4C(F)(F)F)c(=O)c3s2)C1` (stereo not given) had an RP-LC retention time of 663 s. The compound `Cc1cccc(NC(=O)c2cnc3c(c2)c(=O)n(C)c(=O)n3-c2ccccc2)c1` yielded an RP-LC retention time of 926 s. On to `Cc1noc(-c2cccc(OC3CN(C(=O)c4ccco4)C3)c2)n1`, for which the RP-LC retention time was 789 s.

Turning to `COc1ccc(NC(=O)C2CCCN2S(=O)(=O)c2ccc3c(c2)CCCC(=O)N3)cc1OC` (stereo not given), the RP-LC retention time was found to be 688 s. `COCc1cc(=O)n(CCc2ccccc2)c(N2CCCC2)n1` displayed an RP-LC retention time of 816 s. Regarding `Cc1cc(C)n(-c2ccnc(N3CCc4ccccc43)n2)n1`, the RP-LC retention time is 1340 s. Take `CCc1cccc(C)c1Nc1c(-c2cccc(O)c2)nc2ncccn12`: the RP-LC retention time worked out at 730 s. As for `COc1ccccc1OCC(=O)N1CCN(c2nc(CN3CCOCC3)cs2)CC1`, the figure is 613 s; as for `CCCCCC(CN1CCOCC1)C(=O)/C=C/c1ccccc1` (stereo not given), 748 s; as for `CNc1nc(Nc2cn(C(C)(C)C#N)nc2C)ncc1C(F)(F)F`, 696 s. To `Cc1noc([C@@H]2CC(F)(F)CN2S(=O)(=O)c2ccccc2)n1` belongs 858 s; to `CNC(=O)C1CCCN(c2nc3ncn(CC(=O)Nc4ccccc4F)c(=O)c3s2)C1` (stereo not given), 634 s; to `CC1CCN(S(=O)(=O)c2ccc3nn(CC#N)c(=O)n3c2)CC1`, 813 s.

The compound `CC(C)n1cnc(S(=O)(=O)N2CCC(C(=O)Nc3cccc(C(F)(F)F)c3)CC2)c1` came in with an RP-LC retention time of 862 s. For the compound `Cn1c(=O)c2ccn(CC(=O)N3CCN(c4ncccn4)CC3)c2n(C)c1=O`, the RP-LC retention time was found to be 595 s. Turning to `Cc1coc2c(C)c3oc(=O)c(CCC(=O)NCCc4ccc(S(N)(=O)=O)cc4)c(C)c3cc12`, the RP-LC retention time came out at 828 s. For `COC1CCN(C(=O)NC(C)C)CC1`, the RP-LC retention time is 599 s. `Cc1nc2c(sc3nc(-c4ccccc4)ccc32)c(=O)n1CC(=O)Nc1ccccc1F` registered an RP-LC retention time of 982 s. With `CCCn1cc(S(=O)(=O)Nc2cccc(C)c2)c2cccnc21`, the RP-LC retention time was 845 s. With `O=C(Cn1c(=O)c2cc(-c3cccs3)nn2c2ncccc21)Nc1ccc(F)cc1F`, the RP-LC retention time was 872 s. For the compound `CCOc1ccccc1CNC(=O)c1ccc2c(c1)NC(=O)C1CCCCN21` (stereo not given), the RP-LC retention time was determined as 876 s.

`O=C(c1ccco1)N1CCC(c2nc(C3CC3)n[nH]2)CC1` gave an RP-LC retention time of 521 s. The compound `O=C(Nc1ccc2c(c1)OCCO2)c1cn2c(n1)COCC2` yielded an RP-LC retention time of 606 s. To `CN(CCc1noc(-c2ccc(F)cc2)n1)C(=O)Nc1ccccc1F` belongs 882 s; to `O=C(Nc1ccccc1)C1CCCN(c2ncnc3c2nc2n3CCCCC2)C1` (stereo not given), 774 s; to `Clc1ccc(OCc2nnc3sc(-c4ccc5ccccc5n4)nn23)cc1`, 1210 s. `COc1ncc(C(=O)NCc2ccccc2F)cn1` had an RP-LC retention time of 680 s. `Cc1ccc(CNC(=O)CSc2nccc(N3CCN(c4cc(C)ccc4C)CC3)n2)cc1` showed an RP-LC retention time of 958 s.
